Measured values taken from ChEMBL document CHEMBL1140562, “Anti-AIDS agents 73: structure-activity relationship study and asymmetric synthesis of 3-O-monomethylsuccinyl-betulinic acid derivatives” (Bioorg Med Chem Lett, 2007).
Active and inactive are the calls of the source. The rule behind the calls is not given here.

How the values were obtained:
MT2 = experiment: Cytotoxicity against MT2 cells by XTT assay; assay type: functional, cell-based; details: Homo sapiens
[1] = test system: Human immunodeficiency virus 1; experiment: Antiviral activity against HIV1; assay type: functional, organism-based
[2] = Therapeutic index, ratio of IC50 for MT2 cells to EC50 for HIV1; assay type: cell-based; details: human, read-out: Ratio IC50/EC50

| SMILES | IC50 (MT2) [µM] | Activity [1] | selectivity ratio [2] | EC50 [1] [µM] |
| --- | --- | --- | --- | --- |
| C=C(C)[C@@H]1CC[C@]2(C(=O)O)CC[C@]3(C)[C@H](CC[C@@H]4[C@@]5(C)CC[C@H](OC(=O)C[C@H](C)CO)C(C)(C)[C@@H]5CC[C@]43C)[C@@H]12 | > 44.9 | inactive | – | – |
| C=C(C)[C@@H]1CC[C@]2(C(=O)O)CC[C@]3(C)[C@H](CC[C@@H]4[C@@]5(C)CC[C@H](OC(=O)[C@H](C)CC(=O)O)C(C)(C)[C@@H]5CC[C@]43C)[C@@H]12 | > 43.8 | inactive | – | – |
| C=C(C)[C@@H]1CC[C@]2(C(=O)O)CC[C@]3(C)[C@H](CC[C@@H]4[C@@]5(C)CC[C@H](OC(=O)[C@@H](C)CC(=O)O)C(C)(C)[C@@H]5CC[C@]43C)[C@@H]12 | > 43.8 | – | 100 | 0.44 |
| C=C(C)[C@@H]1CC[C@]2(C(=O)O)CC[C@]3(C)[C@H](CC[C@@H]4[C@@]5(C)CC[C@H](OC(=O)C[C@H](C)C(=O)O)C(C)(C)[C@@H]5CC[C@]43C)[C@@H]12 | 32.8 | – | 6270 | 0.0087 |
| C=C(C)[C@@H]1CC[C@]2(C(=O)O)CC[C@]3(C)[C@H](CC[C@@H]4[C@@]5(C)CC[C@H](OC(=O)CC(C)C(=O)O)C(C)(C)[C@@H]5CC[C@]43C)[C@@H]12 (stereo partly specified) | > 44.9 | – | 5320 | 0.016 |
| C=C(C)[C@@H]1CC[C@]2(C(=O)O)CC[C@]3(C)[C@H](CC[C@@H]4[C@@]5(C)CC[C@H](OC(=O)CC(C)(C)C(=O)O)C(C)(C)[C@@H]5CC[C@]43C)[C@@H]12 [BEVIRIMAT] | > 42.8 | – | 30600 | 0.0013 |
| Cc1cn([C@H]2C[C@H](N=[N+]=[N-])[C@@H](CO)O2)c(=O)[nH]c1=O [ZIDOVUDINE] | 1870 | – | – | 0.34 |
| C=C(C)[C@@H]1CC[C@]2(C(=O)O)CC[C@]3(C)[C@H](CC[C@@H]4[C@@]5(C)CC[C@H](OC(=O)C[C@@H](C)C(=O)O)C(C)(C)[C@@H]5CC[C@]43C)[C@@H]12 | > 43.8 | – | 961 | 0.12 |
